Reference: patent publication US7875601B2, “Cancer treatment with epothilones” (Novartis AG, priority 1998, dated 2011)

Legend:
[1] = tested on: HCT-15 (Colon); experiment: Antiproliferative assay, HCT-15; assay type: cell-based, human; details: HCT-15, 5 d exposure, mean ± SD, n = 3; read-out: IC50 for growth inhibition
Text: Human colorectal adenocarcinoma cell line HCT-15 (ATCC CCL 225) is from the American Type Culture Collection (Rockville, Md., USA), and the cells are cultivated in vitro as recommended by the supplier. HCT-15 is an epithelial-like cell line. (Cancer Res. 39: 1020-25 [1979]) that is multi-drug resistant by virtue of over-expression of P-glycoprotein (P-gp, gp170, MDR-1;Anticancer Res. 11: 1309-12 [1991]; J. Biol. Chem. 264: 18031-40 [1989]; Int. J. Cancer 1991; 49: 696-703 [1991]) and glutathione-dependent resistance mechanisms (Int. J. Cancer 1991; 49: 688-95 [1991]).
Antiproliferative assays are performed as previously described (Int. J. Cancer 43, 851-6 (1989)). Briefly, cells are seeded at 1.5×10^3 cells/well into 96-well microtiter plates and incubated overnight. Compounds are added in serial dilutions on day 1. The plates are then incubated for an additional 2 to 5 days, allowing for at least one cell doubling (cell line dependent), after which the cells are fixed with 3.3% v/v glutaraldehyde, washed with water and stained with 0.05% w/v methylene blue. After washing, the dye is eluted with 3% v/v HCl and the optical density measured at 665 nm with a SpectraMax 340 (Bucherer, Basel, Switzerland). IC50 values are determined by a computerized system (SoftPro, Bucherer, Basel, Switzerland) using the formula (OD test−OD start)/(OD control−OD start)×100. […]

[2] = tested on: KB-8511 (Epidermoid, MDR); experiment: Antiproliferative assay, KB-8511; assay type: cell-based, human
Protocol: The human epidermal (mouth) carcinoma cell line KB-8511 (a P-gp over-expressing cell line derived from the epidermoid (mouth) KB-31 carcinoma cell line) is obtained from Dr. R. M. Baker, Roswell Park Memorial Institute (Buffalo, N.Y., USA) (for description see Akiyama et al., Somat. Cell. Mol. Genetics 11, 117-126 (1985) and Fojo A., et al., Cancer Res. 45, 3002-3007 (1985)) and is cultured as previously described (Meyer, T., et al., Int. J. Cancer 43 851-856 (1989)).
Antiproliferative assays are performed as previously described (Int. J. Cancer 43, 851-6 (1989)). Briefly, cells are seeded at 1.5×10^3 cells/well into 96-well microtiter plates and incubated overnight. Compounds are added in serial dilutions on day 1. The plates are then incubated for an additional 2 to 5 days, allowing for at least one cell doubling (cell line dependent), after which the cells are fixed with 3.3% v/v glutaraldehyde, washed with water and stained with 0.05% w/v methylene blue. After washing, the dye is eluted with 3% v/v HCl and the optical density measured at 665 nm with a SpectraMax 340 (Bucherer, Basel, Switzerland). IC50 values are determined by a computerized system (SoftPro, Bucherer, Basel, Switzerland) using the formula (OD test−OD start)/(OD control−OD start)×100. IC50 is defined as the drug concentration which leads to 50% of cells per well compared to control cultures (100%) at the end of incubation period.

[3] = tested on: human PC-3M prostate carcinoma cells; experiment: Antitumor effect against orthotopically injected PC-3M cells; assay type: in vivo, male BALB/c nude mice; details: for Tumor Response (T/C %) Lymph Nodes / Tumor Response (T/C %) Prostate: day 42
Protocol: A human androgen-independent prostate cancer cell line is used to establish subcutaneous and orthotopic models in mice. The human metastatic prostate carcinoma PC-3M is obtained from Dr. I. J. Fidler (MD Anderson Cancer Center, Houston, Tex., USA) and is cultured in Ham's F12K media supplemented with 7% v/v FBS. The PC-3M cell line is the result of isolation from liver metastasis produced in nude mice subsequent to intrasplenic injection of PC-3 cells [ATCC CRL 1435; American Type Culture Collection (Rockville, Md., USA)], and they can grow in Eagle's MEM supplemented with 10% fetal bovine serum, sodium pyruvate, non-essential amino acids, L-glutamine, a two-fold vitamin solution (Gibco Laboratories, Long Island, N.Y.) and penicillin-streptomycin (Flow Laboratories, Rockville, Md.). The PC-3M cell line is hormone-insensitive (that is, it grows in the absence of androgens). The PC-3 cell line is androgen receptor negative, as is presumably the derived PC-3M cell line. […] The cells are near-triploid with a modal number of 62 chromosomes. No normal Y chromosomes can be detected by Q-band analysis.
Human prostate carcinoma PC-3M cells (1×10^6 cells per 20 μl phosphate buffered saline) are injected into the left […] of the prostate of each animal (n=6-9/group) according the method previously described (see Stephenson et al., J. Natl. Cancer Inst. 84, 951-7 (1992)). Treatment is started on day 14 after cell injection. At this time point a mean tumor weight of ˜20 mg is established. Epothilone B is administered either once or once weekly. Mice are sacrificed 42 days post tumor inoculation, and the prostates are carefully removed, dissected free of adhering tissue and weighed. […] Mesenteric lymph nodes are examined for the presence of metastases, dissected free of adhering tissue and weighed.
Tumor weight and body weights are monitored once or twice weekly. All treatments are administered intravenously (i.v.) and are initiated 14 days post cell injection. Treatment with epothilone B varies the dose and frequency of administration. Antitumor activity is expressed as T/C % (mean tumor weight of treated animals divided by the mean tumor weight of control animals multiplied by 100).

## C/C(=C\c1csc(C)n1)[C@@H]1C[C@@H]2O[C@]2(C)CCC[C@H](C)[C@H](O)[C@@H](C)C(=O)C(C)(C)[C@@H](O)CC(=O)O1 [epothilone B]
[1]
  IC50: 0.41 ± 0.15 nM
[2]; KB-8511, 2 d exposure, mean ± SD, read-out: IC50 for growth inhibition
  IC50: 0.89 ± 0.47 nM
[2]; KB-8511 vs parental line
  relative resistance, IC50 (resistant line)/IC50 (parental line): (1.25)
[3]; 4 mg/kg, i.v. once per week
  % Body Weight Change: −1 ± 5%
  Survival (No. alive/total): 8/9
  Δ Body Weight: -1.2 ± 2.3 g
  Tumor Response (T/C %) Lymph Nodes: 4%
  Tumor Response (T/C %) Prostate: 2%
[3]; 5 mg/kg, i.v. once per week
  % Body Weight Change: −25 ± 5%
  Survival (No. alive/total): 7/9
  Δ Body Weight: -6.8 ± 1.5 g
  Tumor Response (T/C %) Lymph Nodes: 4%
  Tumor Response (T/C %) Prostate: 1%
[3]; 6 mg/kg, i.v. once
  % Body Weight Change: −6 ± 12%
  Survival (No. alive/total): 9/9
  Δ Body Weight: -1.4 ± 4.1 g
  Tumor Response (T/C %) Lymph Nodes: 4%
  Tumor Response (T/C %) Prostate: 5%
[3]; 8 mg/kg, i.v. once
  % Body Weight Change: −13 ± 15%
  Survival (No. alive/total): 7/9
  Δ Body Weight: -5.2 ± 4.3 g
  Tumor Response (T/C %) Lymph Nodes: 4%
  Tumor Response (T/C %) Prostate: 1%
[3]; in each of the epothilone B treatment groups, all animals in vehicle controls
  animals with detectable metastases: one
